Measured values reported in publication PMC9122913 (Nature Communications, 2022).

Target: T1, Cyclin-dependent kinase 2 (CDK2) (Homo sapiens, UniProt P24941)
T1 construct: Full-length human CDK2, GST-N-terminal tagged fusion protein
Experiment: pulldown of purified GST-CDK2 with HHT-conjugated beads (free HHT competes in lysate pulldown); DARTS in HEK293 lysate; CDK2/Cyclin A2 kinase assay inhibited at […] HHT
Format: binding
Text: Thus, hydrogen-bonds with T47, R50 and R150 appear critical

Question: For `COC(=O)C[C@](O)(CCCC(C)(C)O)C(=O)O[C@@H]1C(OC)=C[C@]23CCCN2CCc2cc4c(cc2[C@H]13)OCO4` [HHT, homoharringtonine], which “pulldown of purified GST-CDK2 with HHT-conjugated beads (free HHT competes in ly)” value is on record?
Answer: interaction between HHT and CDK2-3As was abolished (Fig. 1G). Thus, hydrogen-bonds with T47, R50 and R150 appear critical
